# Experiments:
# Hedgehog pathway = details: after single administration; cited from earlier work
# [1] = system: preclinical in vivo models, such as medulloblastoma, small cell lung cancer, non-small cell lung cancer, skin cancer, head and neck cancer, and ovarian cancer; details: a number of preclinical in vivo models; cited from earlier work
# [2] = Early dissolution experiments / dissolution attempted in various aqueous media; type: physicochemical
# Description: Gel formation is problematic from a formulation standpoint because it can result, for example, in irregular release of IPI-926 in vivo. Low rates of dissolution, and subsequent gel formation, persist even when small particle sizes (e.g., less than 150 micrometers) of IPI-926 are employed.
# Without wishing to be bound to any particular theory, it was hypothesized that IPI-926 formed the solid agglomerate upon hydration. Accordingly, direct blend formulations were investigated.
# [3] = system: human cell lines derived from patients with pancreatic cancer, medulloblastoma, lung cancer, multiple myeloma, acute lymphocytic leukemia, myelodysplatic …; details: described in WO 2008083252 and WO 2008083248; cited from earlier work
smiles,measurement,setting,value
CC1=C2C[C@H]3[C@@H](CC[C@@H]4C[C@H](NS(C)(=O)=O)CC[C@@]43C)[C@@H]2CC[C@@]2(C1)O[C@@H]1C[C@H](C)CN[C@H]1[C@H]2C.Cl [IPI-926],Hedgehog pathway inhibition in stromal cells,Hedgehog pathway,rapid and sustained Hedgehog pathway inhibition
same,tumor growth inhibition,[1],tumor growth inhibition
same,behaviour when dissolution is attempted,[2],"gel, rather than dissolve"
same,in vitro growth of human cell lines,[3],inhibit in vitro growth

# Source: patent US20110135739A1, “Oral Formulations of a Hedgehog Pathway Inhibitor” (priority 2009, published 2011)
